The results in this text go back to PubChem BioAssay AID743394 (Broad Institute, 2014).

Active and inactive are the calls of the source.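 Rule for the calls: active = 40% activation versus positive control reached by fitted dose-response curve at or below highest valid tested dose; inconclusive = poor fit quality, or flat fit with activation between 30% and 70%; inactive = the rest.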

Test system in one test: not listed separately
Description: inactive X chromosome reactivation in XiGFP fibroblasts, dose response, imaging, 68-5-11 mouse fibroblasts, GFP, cherry-pick (AID 743394).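 Note: sensitizer 5-aza-dC present in the wells at 0.5 mM final.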 As to conditions: 68-5-11 mouse fibroblast XiGFP reporter, % GFP-positive imaging, 3 d; at 19.5 µM (top of the series).
As for `O=C(Cc1ccccn1)N1CCCCN2[C@H](C1)[C@@H](c1ccc(-c3ccccc3F)cc1)[C@@H]2CO`, the activation was 1.33% (inactive). The same measure, in the same setting: the result for `C=CCn1c(O)c(C(C)=NCc2ccc3c(c2)OCO3)c(=O)[nH]c1=O` reads 0.026% (inactive).

Still in this test, the particulars now being: 68-5-11 mouse fibroblast XiGFP reporter, % GFP-positive imaging, 3 d; at 19.5 µM (top of the series); cells co-treated with 5-aza-dC sensitizer; scaled: neutral wells 0, ellipticine wells 100.
Consider `COc1ccc(-n2c(=O)n(Cc3ccccc3)c(=O)c3[nH]cnc32)cc1`, for which the activation is -0.053% (inactive). Still for that read-out and setting: with `Cc1ccc(S(=O)(=O)Nc2cccc3c2O[C@H](CN(C)C(=O)Nc2cccc4ccccc24)[C@H](C)CN([C@H](C)CO)C3=O)cc1` the figure was 0.028% (inactive); with `Cc1ccc(NC(=O)COc2ccc(-c3nnco3)cc2)cc1S(=O)(=O)N1CCOCC1`, -0.044% (inactive); with `COc1ccc(OC)c(NC(=O)Nc2ccc3[nH]ccc3c2)c1`, -0.035% (inactive).

`O=C(c1ccc(Br)cc1)c1cc([N+](=O)[O-])ccc1N1CCOCC1`: the activation is 4.21% (inactive). The same measure, in the same setting: the result for `NNC(=O)c1sc(-c2ccccc2)cc1N` reads 0.249% (inactive); that for `O=C(NCc1ccccc1)c1ccccc1Br`, 0.035% (inactive).

In the case of `COc1ccccc1N=Nc1c(C)[nH]n(-c2ccccc2)c1=O`, the activation was -0.075% (inactive).

Regarding `O=C(C[C@@H]1C[C@@H]2c3cc(NC(=O)C4CCC4)ccc3O[C@@H]2[C@@H](CO)O1)NCc1ccc(Cl)cc1`, the activation is 0.899% (inactive).

For `C[C@@H]1CN([C@@H](C)CO)C(=O)c2cc(NS(C)(=O)=O)ccc2O[C@@H](C)CCCCO[C@@H]1CN(C)Cc1ccccc1`, the activation was 0.016% (inactive). Same read-out and setting: the result for `NNC(=O)/C(=C\c1ccc(Br)cc1)NC(=O)c1cccs1` reads -0.053% (inactive); that for `COc1cccc(C(=O)c2c(-c3ccccc3)ncc3cc(OC)c(OC)cc23)c1`, 0.006% (inactive); that for `Cc1nn(-c2ccccc2)c(C)c1N`, 0.313% (inactive). On the same count and under the same terms, with `CCSc1nnc(NC(=O)c2cc(OC)c(OC)c(OC)c2)s1` the figure was 0.316% (inactive); with `CCOC(=O)Cc1csc(NC(=O)Nc2ccc(F)cc2)n1`, 0.472% (inactive). On the same count and under the same terms, with `CO[C@@H]1CN(C)C(=O)c2ccc(NC(=O)Nc3cccc(Cl)c3)cc2OC[C@H](C)N(C(=O)Nc2c(C)noc2C)C[C@H]1C` the figure was -0.002% (inactive). For the molecule `COc1ccc(NS(=O)(=O)c2ccc(NC(C)=O)cc2)nn1`, the activation is 0.042% (inactive). Still for that read-out and setting: the result for `CCN(CC)CCCNC1=C(Cl)C(=O)c2ccccc2C1=O` reads -0.032% (inactive). Same read-out and setting: the result for `C[C@H]1CN([C@@H](C)CO)C(=O)c2ccccc2-c2ccccc2CO[C@H]1CN(C)C(=O)[C@@H](Cc1ccccc1)N(C)C` reads 0% (inactive). Still for that read-out and setting: the result for `C/C=C/Cn1c(SCCCc2ccccc2)nc2c1c(=O)[nH]c(=O)n2C` reads -0.024% (inactive). In the case of `CCCOc1ccc(C(=O)Nc2ccc(CN3CCOCC3)cc2)cc1`, the activation was -0.053% (inactive). `Cc1ccccc1NC(=O)c1c(C)[nH]c(=S)c(C#N)c1-c1ccc(Cl)cc1`: the activation was 0.075% (inactive).

As for `CC[N+]1=C(C)C(C)(C)c2cc(C)ccc21`, the activation is -0.032% (inactive). Same read-out and setting: the result for `COc1ccc(OCCN2CCC(C(=O)NC(c3ccc(C)cc3)c3ccccn3)CC2)cc1` (centres undefined) reads 0.883% (inactive); that for `CC(=O)NC(c1ccc(Cl)cc1)c1c(O)ccc2ccc(O)cc12` (centres undefined), 0.013% (inactive); that for `Cc1nnc(SCc2cc(=O)oc3ccc4ccccc4c23)n1Cc1ccccc1`, -0.027% (inactive).

As to `Cc1ccc(S(=O)(=O)Nc2ccc3c(c2)C(=O)N([C@@H](C)CO)C[C@@H](C)[C@@H](CN(C)Cc2ccc(C(=O)Nc4ccccc4N)cc2)O3)cc1`, the activation was 1.51% (inactive). Same read-out and setting: the result for `CC(C)N1CCc2c(sc(NC(=O)c3cc4cc([N+](=O)[O-])ccc4s3)c2C(N)=O)C1` reads 7.43% (inactive); that for `COc1ccc(-n2nc(C#N)c(Cl)cc2=O)cc1`, 0.745% (inactive). Still for that read-out and setting: the result for `O=C(/C=C/Sc1ccc(C(F)(F)F)cn1)c1ccccc1` reads 0.096% (inactive); that for `CCc1ccc(CCC(=O)Nc2ncc(Cc3ccccc3Cl)s2)o1`, 0.223% (inactive); that for `O=[N+]([O-])c1ccc(S(=O)(=O)c2ccccc2)nc1`, -0.024% (inactive).

For `O=c1[nH]cnc2c1ncn2[C@H]1CC[C@@H](CO)O1`, the activation is -0.002% (inactive).

In the case of `CC(=O)Oc1ccc2c(=O)c(-c3ccccc3)coc2c1`, the activation was 0.086% (inactive). On the same count and under the same terms, the result for `CCCN(C(=O)c1ccc(-n2cncn2)c([N+](=O)[O-])c1)C1CCS(=O)(=O)C1` (centres undefined) reads -0.007% (inactive).

As to `CC(C)(C)[S@@](=O)N1Cc2cc(C(=O)N3CCCCC3)nc(-c3cccc(-c4cccc(C#N)c4)c3)c2[C@H]1CCO`, the activation is -0.031% (inactive). Same read-out and setting: with `Cc1cc(NC(=O)c2ccccc2)n(-c2nc3ccccc3[nH]2)n1` the figure was -0.016% (inactive); with `CCOC(=O)c1cnc(-c2ccc(C(F)(F)F)cn2)[nH]c1=O`, -0.017% (inactive). With `CCOC(=O)c1sc2nc(CSc3ccccc3)[nH]c(=O)c2c1C`, the activation was 0.303% (inactive).

For the molecule `O=C(C[C@H]1CC[C@H]2[C@@H](COC[C@@H](O)CN2C(=O)Nc2ccccc2)O1)NCCc1ccncc1`, the activation was 0.207% (inactive). The same measure, in the same setting: with `Cc1cc(-c2nc(C)c(-c3nnc(SCC(=O)Nc4ccc(Cl)cc4)n3C)s2)no1` the figure was 0.023% (inactive). For the molecule `O=C1CCCC(O)=C1Sc1cc(Cl)c(Cl)cc1Cl`, the activation was 0.118% (inactive). On to `COc1ccccc1OCCOc1ccc(/C=C2\C(=N)N3N=C(S(C)(=O)=O)SC3=NC2=O)cc1`, for which the activation is 0.042% (inactive). Same read-out and setting: the result for `COC(C(=O)NCc1ccc(C)cc1)c1ccccc1` (centres undefined) reads 0.114% (inactive).

Regarding `CN(C)C(=O)CN1CCN(Cc2nc(CC3CC3)no2)CC1`, the activation was -0.032% (inactive). `O=C(O)c1ccccc1C1Nc2ccccc2C(=O)N1CCCN1CCOCC1` (centres undefined): the activation was 0.018% (inactive). Turning to `CCc1ccc(N2CC(C(=O)Nc3cc(C)on3)CC2=O)cc1` (centres undefined), the activation was -0.034% (inactive). Still for that read-out and setting: with `N#Cc1ccccc1Cn1cc(/C=N/Nc2ccc([N+](=O)[O-])cn2)c2ccccc21` the figure was 10.9% (inactive); with `COc1cccc(CNC(=O)c2cc(S(=O)(=O)N3CCOCC3)cn2C)c1`, 0.576% (inactive).

For `Oc1c(C(c2ccccc2Cl)N2CCCC2)ccc2cccnc12` (centres undefined), the activation was -0.035% (inactive). Same read-out and setting: the result for `Cc1cccc(NC(=O)Cn2cnc3c(oc4nc5c(cc43)COC(C)(C)C5)c2=O)c1` reads 4.42% (inactive); that for `CC1CC(C)CN(C(=O)CSCC(=O)Nc2nc(-c3cccs3)cs2)C1` (centres undefined), -0.047% (inactive); that for `Cn1c(=O)c2[nH]c(-c3ccc(S(=O)(=O)O)cc3)nc2n(C)c1=O`, 0.001% (inactive).

On to `Nc1ccccc1C#CC(=O)c1ccccc1`, for which the activation was -0.07% (inactive). As to `CCCCC(CCC(=O)Nc1ccn(-c2ccccc2)n1)C(=O)O` (centres undefined), the activation is 0% (inactive).

For the molecule `COc1ccc(C2C(=O)c3ccccc3C2=Nc2ccc(Br)cc2)cc1` (centres undefined), the activation was -0.066% (inactive). On the same count and under the same terms, with `O=C(Nc1cccc(S(=O)(=O)NC2=NCCC2)c1)C1CC(=O)N(c2ccc3c(c2)OCCO3)C1` (centres undefined) the figure was 0.339% (inactive); with `O=[N+]([O-])c1ccccc1-c1ccc(C(=S)N2CCN(c3ccccc3)CC2)o1`, 0.417% (inactive); with `O=C(c1nc(SCc2ccc([N+](=O)[O-])cc2)n2ccccc12)C(F)(F)F`, 0.007% (inactive). On the same count and under the same terms, the result for `Cc1ccc(NC(=O)c2cc(N3C(=O)C=CC3=O)ccc2N2CCOCC2)cc1Cl` reads -0.024% (inactive); that for `CCOC(=O)c1ccc(NC(=O)C2CCC(CNc3c(N4CCOCC4)c(=O)c3=O)CC2)cc1` (centres undefined), 0.016% (inactive). In the case of `CCOc1ccc(N2C(=O)CC(Sc3nc(O)c(CC)c(=O)[nH]3)C2=O)cc1` (centres undefined), the activation is 0.001% (inactive). Regarding `CN(c1ccccc1)S(=O)(=O)c1ccc(C(=O)NCC(c2ccco2)N2CCCCC2)cc1` (centres undefined), the activation was -0.009% (inactive). The same measure, in the same setting: the result for `CN(C)C=NC(=O)c1cc(C(=O)c2ccc(Cl)cc2Cl)c[nH]1` reads -0.032% (inactive); that for `NC(=O)c1sc2nc3c(cc2c1N)CCCCCC3`, 0.065% (inactive). The same measure, in the same setting: the result for `CNC(=O)C[C@H]1C(=O)N(c2ccccc2)C[C@@H]1C` reads 0.464% (inactive); that for `Cc1ccc(-c2csc(NC(=O)c3cccc([N+](=O)[O-])c3C(=O)O)n2)cc1`, -0.047% (inactive).

The subject of a further test is 68-5-11 mouse fibroblast XiGFP reporter, % GFP-positive imaging, 3 d. The test is described as above. The settings on record: cells co-treated with 5-aza-dC sensitizer.
For `CCN1/C(=C\c2ccc3cc(C)ccc3[n+]2CC)Sc2cc(C)c(C)cc21`, the AC40 is 5.57 µM. Same read-out and setting: the result for `Cc1cc(/C=C2\SC(=S)N(Cc3ccco3)C2=O)c(C)n1-c1ccccc1` reads > 19.5 µM (inactive). With `CC(C)CCN1CCN(Cc2cc3ccccc3[nH]2)CC1CCO` (centres undefined), the AC40 is 16.4 µM. The same measure, in the same setting: with `COC(=O)C1=C(C)NC(C)=C(C(=O)OC)C1C(=O)OCC(=O)c1ccc(F)cc1` the figure was 15.3 µM; with `CCN(CC)c1ccc2cc(-c3nc(-c4ccc(OC)cc4)cs3)c(=O)oc2c1`, 0.057 µM. The same measure, in the same setting: the result for `Cc1cccc(NC(=O)/C=C/c2ccc([N+](=O)[O-])s2)c1` reads 1.58 µM; that for `N#C/C(=C/c1ccc(N2CCCCC2)o1)C(=O)Nc1ccc2ccccc2c1`, 0.297 µM; that for `Cc1ccc2cc3c(N)c(C(=O)Nc4c(C)[nH]c(=O)[nH]c4=O)sc3nc2c1`, 13.2 µM.

Consider `COc1cc(N2CCCC2)c(OC)cc1/C=C1/NC(=S)NC1=O`, for which the AC40 is > 19.5 µM (inactive). Same read-out and setting: the result for `Cc1ccc(C(=O)N/C(=C/c2ccc(-c3ccc([N+](=O)[O-])cc3)o2)C(=O)NCCCN(C)C)cc1` reads 4.28 µM.
